Patent publication US20100189797A1, “ORAL ANTIDEPRESSANT FORMULATION” (priority 2002, published 2010)

Legend:
stressed rats = assay: Tests made on rats: activity level of stressed rats; type: in vivo; conditions: 5 mg fluoxetine per kg and/or 50 mg ASA per kg, unstressed control 30, stressed 2
Protocol: Four groups of rats have been stressed. One group of rats remain unstressed so as to serve as control.
After being stressed, the rats of the first group received a dose of 50 mg ASA per kg. The second group of rats received no treatment. The third group of rats received 5 mg fluoxetine per kg, and the fourth group of rats received simultaneously 5 mg fluoxetine+50 mg ASA per kg.
The treatment was continued during 3 weeks.
In said test, the doses of ASA and fluoxetine have been adapted for rats.

volunteers = assay: Informal tests on volunteers: oral ASA dose with oral antidepressant; type: in vivo, human; conditions: oral ASA less than 50 mg with an antidepressant
Protocol: From said tests and informal tests made on volunteers, in which after (just after, less than 5 minutes after) and prior oral administration of an antidepressant, a dose of ASA was orally administered, it appears that the oral dose of ASA had to be lowered to less than 50 mg, especially between 5 and 50 mg.
From this test, it seems that the antidepressant action could already be achieved in less than 7 days, and even in less than 3 to 4 days, although when not using low dose of ASA, the antidepressant action is for example of at least 4 weeks for SSRI.

SSRI responding human = assay: Higher dose of ASA administered to SSRI responding human; type: in vivo; conditions: ASA dose of 100 mg

bleeding (volunteers)	SMILES	activity after 1 week of treatment (stressed rats)	activity after three weeks of treatment (stressed rats)	influence on the time of onset of antidepressant action (SSRI responding human)
–	CNCCC(Oc1ccc(C(F)(F)F)cc1)c1ccccc1 (racemic) [fluoxetine, (±)-N-methyl-3-phenyl-3-[(α-α-α-trifluoro-p-tolyl)oxy] propylamine]	no increase at all of the activity	about 25	–
no bleeding was observed	CC(=O)Oc1ccccc1C(=O)O [ASA, acetyl salicylic acid]	no increase at all of the activity	no improvement of activity	no influence or even to have a negative influence
